The target of assay [1] is T1, human α4β2 subtype of nicotinic acetylcholine receptors (Homo sapiens, UniProt P17787+P43681).
T1 construct: expressed in transfected cells; host or cells: Xenopus laevis oocytes injected with hnACh-R α4 and β2 cRNA (pSP64 polyA)
Description: Agonist activities at human α4β2 subtype of nicotinic acetylcholine receptors expressed in Xenopus oocytes (membrane potential holding method). The class given is cell-based. The conditions noted are these: 100 μM test compound, relative to 10 μM acetylcholine (100%). Here is the method: The agonist effect in human α4β2 subtype of nicotinic acetylcholine receptors are examined by using human nicotinic acetylcholine receptors prepared in oocytes of Xenopus laevis, which is injected with cRNA from the corresponding cloning cDNA of human α4 and β2 subunits of nicotinic acetylcholine receptors, and to measure the expression of the electric response by adding the test compounds to perfusion solution by means of membrane potential holding method.
Agonist Activities at Human α4β2 Subtype of Nicotinic Acetylcholine Receptors
(1) Preparation of cRNA of Human α4β2 Subtype of Nicotinic Acetylcholine Receptors
The obtained hnACh-R α4 cDNA and hnACh-R β2 cDNA were inserted to the cRNA expression vector (pSP64 polyA) having SP6 RNA promoter to construct hnACh-R α4/pSP64 polyA and hnACh-R β2/pSP64 polyA, respectively. After cutting from expression vector by restriction enzyme (EcoRI), transcription was performed by affecting SP6 RNA polymerase in the presence of cap analogues to obtain hnACh-R α4 cRNA and hnACh-R β2 cRNA, respectively.
(2) Expression of Human α4β2 Subtype Nicotinic Acetylcholine Receptors in Xenopus Oocytes
Oocytes were purchased from Kitanihonseibutsukyohzai Co., Ltd., which were already enucleated from Xenopus laevis, and used in this experiment.
The oocytes were treated with collagenase (Sigma type I; 1 mg/ml) in calcium-free modified Birth's solution (88 mM of NaCl, 1 mM of KCl, 2.4 mM of NaHCO3, 0.82 mM of MgSO4, 15 mM of HEPES, pH 7.6) under gently stirring at room temperature for 90 minutes, and washed out the enzyme from the tissue. Then, oocytes were separated from ovarian follicle by tweezers, and isolated oocytes were placed in antibiotics containing modified Birth's solution (88 mM of NaCl, 1 mM of KCl, 2.4 mM of NaHCO3, 0.82 mM of MgSO4, 15 mM of HEPES, pH 7.6, and 0.1 v/v % of mixture solution containing of penicillin and streptomycin for incubation; Sigma Co.). […] In oocytes, heterogeneous quintuple [(α4)2(β2)3] was composed by translation of injected cRNAs, and ion channel receptors were constructed on cell membrane.
(3) Agonist Activities at Human α4β2 Subtype of Nicotinic Acetylcholine Receptors
The recordings of responses at human α4β2 subtype of nicotinic acetylcholine receptors by means of membrane potential holding method were performed as follow. […] Test compounds were added to the perfusion solution, and recorded the peak strength of induced inward current. In order to normalize the responses of test compounds, the responses with acetylcholine (Ach) were recorded before and after application of the test compounds. Generally in the oocytes just after isolated, the response of intrinsic muscarinic acetylcholine receptors, which is inward current caused by activation of calcium dependence chloride ion channels with increase of the intracellular calcium concentration by stimulation of receptors, is observed. […] Therefore, the responses observed in oocytes with injection of hnACh-R α4 cRNA and hnACh-R β2 cRNA, i.e., the inward current induced by the intracellular influx of sodium ion according to the stimulation of receptors, would be the freshly observed responses of human α4β2 subtype nicotinic acetylcholine receptors.

Assay [2] addresses α1β1γδ subtype of nicotinic acetylcholine receptors (Rattus norvegicus, UniProt P18916+P25108+P25109+P25110). Description: biochemical. The class given is binding. The text has this:
(§1) The methods for evaluating the binding capabilities of the compounds at nicotinic acetylcholine receptors are different by subtypes of receptors. The binding capabilities of the compounds at α4β2 nicotinic acetylcholine receptors are examined using rat brain membrane obtained from whole homogenized brain, and determining the inhibiting rate of the compounds against [^3H]-cytisine binding to said brain membrane. Furthermore, the binding capabilities of the compounds at α1β1γδ nicotinic acetylcholine receptors are examined using homogenized rat muscle, and determining the inhibiting rate of the compounds against [^3H]-α-bungarotoxin binding to said muscle homogenate.
Binding Assays at α1β1γδ Subtype of Nicotinic Acetylcholine Receptors
The affinity of the compounds of the present invention to α1β1γδ subtype of nicotinic acetylcholine receptors was measured by the following method, which was modified method described by Garcha H. S., Thomas P., Spivak C.
(1) Preparation of Rat Skeletal Muscles Containing α1β1γδ Subtype of Nicotinic Acetylcholine Receptors
The substantially same animals described in the Biological Experiment 1 were used.
The isolation of α1β1γδ subtype of nicotinic acetylcholine receptors was performed as follow. That is, rat posterior skeletal muscles were isolated just after sacrificed by decapitation, washed with ice-cooled saline solution and then frozen at −80° C. with liquid nitrogen and stored till using. After thawing the frozen muscles, tissue was homogenized ([…]) with buffer solution [2.5 mM of sodium phosphate buffer (pH:7.2), 90 mM of NaCl, 2 mM of KCl, 1 mM of EDTA, 2 mM of benzamidine, 0.1 mM of benzethonium chloride, 0.1 mM of PMSF, 0.01% of sodium azide] in Waring blender (Waring blender 34BL97; WARING PRODUCTS DIVISION DYNAMICS CORPORATION OF AMERICA) for 60 seconds. The homogenate were centrifuged under 20,000×G for 60 minutes at 4° C. The supernatant was separated and the resulting pellet was added to the same buffer (1.5 ml/g wet weight), and homogenized under the same conditions. Triton X100 (2% w/v) was added and the mixture was stirred for 3 hours at 4° C. The centrifugation at 100,000×G for 60 minutes at 4° C. yielded the rat muscle extract as supernatant. This was stored at 4° C. for up to 4 weeks, and used for binding assays at receptors.
(2) Experiments of α1β1γδ Subtype of Nicotinic Acetylcholine Receptors Binding
Receptors binding experiments were performed as follow. That is, the extract of rat muscle containing 600-900 μg of protein was added to test tubes containing test compounds and incubated for 15 minutes at 37° C. Then, to this mixture was added 1 nM of [^3H]-α-bungarotoxin (α-Bgt) and further incubated for 2 hours. The samples were isolated by vacuum filtration onto Whatman GF/B filters, which were prerinsed with 0.5% polyethylenimine just prior to sample filtration, using Brandel multi manifold cell harvester. The filters were rapidly rinsed with washing solution (10 mM of KH2PO4, 150 mM of NaCl, pH 7.2, room temperature) (5×1 ml). The filters were counted in 3 ml of clearsol I (Nacalai Tesque Inc.). The determination of nonspecific binding was incubated in the presence of 1 μM α-Bgt. […] In the receptor binding experiments, said buffer solution was added for adjusting the final concentration of BSA to be 0.05%.
The analyses of the experimental results were conducted by the same way as described in the Biological Experiment 1.

Assay [3] concerns the target T2, α4β2 subtype of nicotinic acetylcholine receptors (Rattus norvegicus, UniProt P09483+P12390).
T2 construct: examined using rat brain membrane obtained from whole homogenized brain; from tissue; host or cells: rat whole brain membranes (Fischer-344 male rats)
Description: Binding assay at α4β2 subtype of nicotinic acetylcholine receptors ([3H]-cytisine, rat brain membrane).
Description: as §1
Binding Assays at α4β2 Subtype of Nicotinic Acetylcholine Receptors
(1) Preparation of Rat Brain Membrane Containing α4β2 Subtype of Nicotinic Acetylcholine Receptors
Rats were housed in the breeding cage controlled of the room temperature at 23±1° C., and the humidity of 55±5% for 1 to 4 weeks. Rats (3 to 4 rats per a cage) were housed with lights on for 12 hours daily (from 7:00 to 19:00), and allowed free access to food and water.
Preparation of rat brain membrane containing α4β2 subtype of nicotinic acetylcholine receptors was performed as follow. That is, rat brains were isolated just after sacrificed by decapitation, washed with ice-cooled saline solution and then frozen at −80° C. with liquid nitrogen and stored till using. After thawing the frozen brain, the brain was homogenized in 10 volumes of ice-cooled buffer solution (50 mM of Tris-HCl, 120 mM of NaCl, 5 mM of KCl, 1 mM of MgCl2, 2 mM of CaCl2; pH 7.4; 4° C.) using homogenizer (HG30, Hitachi Kohki Ltd.) for 30 seconds, and the homogenate were centrifuged under 1,000×G for 10 minutes at 4° C. The resulting supernatant was separated and the pellet was homogenized again with half volume of aforementioned prior buffer solution and centrifuged under the same conditions. Combined supernatant was further centrifuged under 40,000×G for 20 minutes at 4° C. The pellet was suspended in buffer solution and used for binding assays at receptors.
(2) Experiments of α4β2 Subtype of Nicotinic Acetylcholine Receptors Binding
Suspensions of membrane pellets containing 400-600 μg of protein were added to test tubes containing test compounds and [^3H]-cytisine (2 nM) in a final volume of 200 μl and incubated for 75 minutes in ice-cooled bath. The samples were isolated by vacuum filtration onto Whatman GF/B filters, which were prerinsed with 0.5% polyethylenimine just prior to sample filtration, using Brandel multi manifold cell harvester. The filters were rapidly washed with buffer solution (3×1 ml). The filters were counted in 3 ml of clearsol I (Nacalai Tesque Inc.).
The analyses of the experimental results were conducted by using the Accufit Competition Program (Beckman Ltd.).

The record followed here is US20030100769A1, “Cyclic amidine compounds” (priority 2000, published 2003).

Molecules are shown by their SMILES.

Sequence of α1β1γδ subtype of nicotinic acetylcholine receptors (P25109 24-501): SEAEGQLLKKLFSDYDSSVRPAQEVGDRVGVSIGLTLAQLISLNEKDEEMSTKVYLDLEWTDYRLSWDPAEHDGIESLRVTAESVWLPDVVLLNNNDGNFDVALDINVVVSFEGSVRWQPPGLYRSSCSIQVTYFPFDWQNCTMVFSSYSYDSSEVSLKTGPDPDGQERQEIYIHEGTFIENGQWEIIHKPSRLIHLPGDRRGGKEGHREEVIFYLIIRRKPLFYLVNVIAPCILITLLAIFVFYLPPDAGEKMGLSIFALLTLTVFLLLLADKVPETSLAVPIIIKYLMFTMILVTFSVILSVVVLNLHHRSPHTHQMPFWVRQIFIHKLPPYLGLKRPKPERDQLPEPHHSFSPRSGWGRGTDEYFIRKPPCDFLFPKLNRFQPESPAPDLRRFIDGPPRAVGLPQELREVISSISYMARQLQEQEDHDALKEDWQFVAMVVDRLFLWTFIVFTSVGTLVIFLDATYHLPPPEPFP
Sequence of α1β1γδ subtype of nicotinic acetylcholine receptors (P25110 22-517): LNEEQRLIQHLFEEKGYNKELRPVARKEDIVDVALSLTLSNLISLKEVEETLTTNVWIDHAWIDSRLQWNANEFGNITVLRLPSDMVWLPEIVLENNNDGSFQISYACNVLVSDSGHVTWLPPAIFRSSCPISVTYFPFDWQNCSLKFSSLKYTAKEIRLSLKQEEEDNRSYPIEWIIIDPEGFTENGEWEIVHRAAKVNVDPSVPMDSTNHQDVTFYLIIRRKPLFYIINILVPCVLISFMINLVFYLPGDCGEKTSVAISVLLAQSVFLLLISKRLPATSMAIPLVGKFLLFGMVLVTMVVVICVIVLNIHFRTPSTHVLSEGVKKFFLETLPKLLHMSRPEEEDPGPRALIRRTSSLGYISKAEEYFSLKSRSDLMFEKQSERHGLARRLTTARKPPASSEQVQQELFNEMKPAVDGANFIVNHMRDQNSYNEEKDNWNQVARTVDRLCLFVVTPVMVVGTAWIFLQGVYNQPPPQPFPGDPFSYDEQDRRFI
Sequence of α1β1γδ subtype of nicotinic acetylcholine receptors (P25108 21-457): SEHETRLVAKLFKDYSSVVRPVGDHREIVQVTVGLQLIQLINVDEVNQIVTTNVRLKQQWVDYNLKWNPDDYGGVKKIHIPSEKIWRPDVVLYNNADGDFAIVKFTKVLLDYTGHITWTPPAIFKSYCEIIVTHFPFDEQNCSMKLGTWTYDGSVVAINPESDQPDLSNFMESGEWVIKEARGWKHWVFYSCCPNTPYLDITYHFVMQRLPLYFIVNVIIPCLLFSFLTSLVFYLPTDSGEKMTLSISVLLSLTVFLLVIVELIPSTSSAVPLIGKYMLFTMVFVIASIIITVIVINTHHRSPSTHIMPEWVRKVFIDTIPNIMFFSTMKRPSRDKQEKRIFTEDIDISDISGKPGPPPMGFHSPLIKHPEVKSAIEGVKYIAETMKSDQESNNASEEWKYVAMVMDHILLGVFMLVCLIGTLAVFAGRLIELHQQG
T1 sequence (P43681 29-627 limits assumed): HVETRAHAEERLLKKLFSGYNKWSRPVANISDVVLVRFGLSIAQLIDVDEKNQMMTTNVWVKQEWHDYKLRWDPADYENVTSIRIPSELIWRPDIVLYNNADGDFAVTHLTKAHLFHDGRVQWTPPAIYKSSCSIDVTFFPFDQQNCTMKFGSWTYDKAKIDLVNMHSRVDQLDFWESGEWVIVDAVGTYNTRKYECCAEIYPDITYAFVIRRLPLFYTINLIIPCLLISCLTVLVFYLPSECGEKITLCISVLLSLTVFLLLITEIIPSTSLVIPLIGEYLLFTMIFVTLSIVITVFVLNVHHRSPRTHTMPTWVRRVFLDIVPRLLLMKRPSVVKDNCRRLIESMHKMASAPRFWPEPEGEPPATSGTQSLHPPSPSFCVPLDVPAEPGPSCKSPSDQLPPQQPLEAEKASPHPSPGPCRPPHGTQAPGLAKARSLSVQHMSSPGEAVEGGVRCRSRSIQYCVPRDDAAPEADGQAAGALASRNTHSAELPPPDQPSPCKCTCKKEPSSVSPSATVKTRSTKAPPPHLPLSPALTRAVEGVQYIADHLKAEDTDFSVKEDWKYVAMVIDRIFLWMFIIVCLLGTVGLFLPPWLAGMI
T1 sequence (P17787 26-502): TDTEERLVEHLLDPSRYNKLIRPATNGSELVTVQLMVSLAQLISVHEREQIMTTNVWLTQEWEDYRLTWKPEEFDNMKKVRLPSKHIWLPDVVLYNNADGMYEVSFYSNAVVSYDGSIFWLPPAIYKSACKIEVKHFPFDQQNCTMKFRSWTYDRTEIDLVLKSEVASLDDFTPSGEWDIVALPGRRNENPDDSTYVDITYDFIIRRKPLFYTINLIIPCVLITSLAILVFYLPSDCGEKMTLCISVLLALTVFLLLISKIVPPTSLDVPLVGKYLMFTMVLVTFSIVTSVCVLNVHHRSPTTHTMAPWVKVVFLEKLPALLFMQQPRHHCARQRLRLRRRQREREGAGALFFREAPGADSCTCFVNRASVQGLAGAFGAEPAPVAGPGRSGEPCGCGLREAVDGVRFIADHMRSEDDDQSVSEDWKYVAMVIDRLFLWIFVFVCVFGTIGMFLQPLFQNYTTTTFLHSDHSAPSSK
T2 sequence (P09483 31-630): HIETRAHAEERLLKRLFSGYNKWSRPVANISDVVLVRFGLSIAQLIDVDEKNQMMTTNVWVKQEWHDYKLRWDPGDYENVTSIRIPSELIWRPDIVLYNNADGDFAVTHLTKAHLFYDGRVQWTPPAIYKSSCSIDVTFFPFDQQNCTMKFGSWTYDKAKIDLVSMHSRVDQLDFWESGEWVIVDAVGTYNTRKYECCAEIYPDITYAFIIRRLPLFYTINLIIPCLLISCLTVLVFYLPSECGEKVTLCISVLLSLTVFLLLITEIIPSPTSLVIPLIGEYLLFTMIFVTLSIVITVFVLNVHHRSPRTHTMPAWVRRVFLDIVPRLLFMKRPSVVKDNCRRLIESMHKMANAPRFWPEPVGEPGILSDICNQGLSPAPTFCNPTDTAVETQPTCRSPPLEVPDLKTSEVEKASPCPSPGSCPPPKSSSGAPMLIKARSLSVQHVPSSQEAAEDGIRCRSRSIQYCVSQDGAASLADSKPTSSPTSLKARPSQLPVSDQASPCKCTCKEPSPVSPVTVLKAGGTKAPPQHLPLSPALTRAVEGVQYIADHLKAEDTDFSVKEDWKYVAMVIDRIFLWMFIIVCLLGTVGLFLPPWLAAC
T2 sequence (P12390 25-500): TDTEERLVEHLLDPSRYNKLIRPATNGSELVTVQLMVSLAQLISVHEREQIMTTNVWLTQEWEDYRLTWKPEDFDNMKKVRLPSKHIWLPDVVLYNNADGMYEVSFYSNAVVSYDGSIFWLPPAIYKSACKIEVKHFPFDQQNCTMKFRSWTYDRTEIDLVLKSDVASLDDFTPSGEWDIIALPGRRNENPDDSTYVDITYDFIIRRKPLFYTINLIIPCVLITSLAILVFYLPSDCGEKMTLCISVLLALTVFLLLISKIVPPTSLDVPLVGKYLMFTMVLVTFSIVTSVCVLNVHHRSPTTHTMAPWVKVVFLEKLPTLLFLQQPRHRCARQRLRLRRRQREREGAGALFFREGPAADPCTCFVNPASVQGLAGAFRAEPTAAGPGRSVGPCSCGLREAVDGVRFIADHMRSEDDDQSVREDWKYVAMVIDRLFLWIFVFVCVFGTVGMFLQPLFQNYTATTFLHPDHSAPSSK

Consider `Clc1ccc(CN2C=NCCC2)cn1` [Compound 27, 1-(6-chloro-3-pyridyl)methyl-1,4,5,6-tetrahydropyrimidine], for which the “Agonist activity: control % by response at 100 μM of the test compound” value (shortened to “Agonist activity: control % by response”) in assay [1] is listed as “(18.0%)”. The Ki in assay [2] is 45 µM; in assay [3] it was 0.002 µM.

On to `Cc1ccc(CC2=NCCN2)cn1` [Compound 45, 2-(6-methyl-3-pyridyl)methyl-2-imidazoline], for which, in assay [1], the “Agonist activity: control % by response” value is on record as “(12.0%)”.

In the case of `Cc1ccc(CN2C=NCCC2)cn1` [Compound 57, 1-(6-methyl-3-pyridyl)methyl-1,4,5,6-tetrahydropyrimidine], the “Agonist activity: control % by response” value in assay [1] was “(9.1%)”. Besides, the figures for the Ki in assay [2] and in assay [3] were 86 µM and 0.012 µM, respectively.

In the case of `C1=NCCCN1Cc1cccnc1` [Compound 58, 1-(3-pyridyl)methyl-1,4,5,6-tetrahydropyrimidine], the “Agonist activity: control % by response” value in assay [1] was “(27.9%)”. The Ki in assay [2] turned out to be 32 µM; in assay [3], 0.0069 µM.

As to `CC1=NCCN1CCc1ccc(Cl)nc1` [Compound 62, 1-[2-(6-chloro-3-pyridyl)ethyl]-2-methyl-2-imidazoline], the “Agonist activity: control % by response” value in assay [1] was “(9.6%)”. The inhibition constant Ki in assay [2] amounted to 639 µM; in assay [3], 0.07 µM.
